# Target: T1, interaction between VCAM-1 and VLA-4 (VLA-4 on human U937 cells / hVCAM-1(1-3)-IgG) (Homo sapiens, UniProt P05556+P13612)
# T1 construct: offered in their natural form as surface molecules on human U937 cells; host or cells: U937 cells carry the endogenous VLA-4; The partner hVCAM-1(1-3)-IgG was made in house in transfected COS cells (ATCC CRL1651) and used as culture supernatant
# Assay: U937/VCAM-1 cell adhesion test: adhesion of U937 cells to hVCAM-1(1-3)-IgG
# Assay type: cell-based
# Details: inhibition of adhesion of U937 cells (ATCC CRL 1593) to hVCAM-1(1-3)-IgG
# Description: As a test method for the activity of the compounds of the formula Ib on the interaction between VCAM-1 and VLA-4, an assay is used which is specific for this interaction. The cellular binding components, i.e. the VLA-4-integrins, are offered in their natural form as surface molecules on human U937 cells (ATCC CRL 1593), which belong to the group of leucocytes. As specific binding components, recombinant soluble fusion proteins prepared by genetic engineering and consisting of the extracytoplasmic domains of human VCAM-1 and the constant region of a human immunoglobulin of the subclass IgG1 are used.
# Assay for the measurement of the adhesion of U937 cells (ATCC CRL 1593) to hVCAM-1(1-3)-IgG
# 1. Preparation of human VCAM-1(1-3)-IgG and human CD4-IgG
# A genetic construct for the expression of the extracellular domains of human VCAM-1 was employed, associated with the genetic sequence of the heavy chain of human immunoglobulin IgG-1 (hinge, CH2 and CH3 regions), from Dr. Brian Seed, Massachusetts General Hospital, Boston, USA. The soluble fusion protein hVCAM-1(1-3)-IgG contained the three amino-terminal extracellular immunoglobulin-like domains of human VCAM-1 (Damle and Aruffo, Proc. Natl. Acad. Sci. USA 1991, 88, 6403). CD4-IgG (Zettlmeissl et al., DNA and Cell Biology 1990, 9, 347) served as a fusion protein for negative controls. The recombinant proteins were expressed as soluble proteins after DEAE/dextran-mediated DNA-transfection in COS cells (ATCC CRL1651) according to standard procedures (Ausubel et al., Current protocols in molecular biology, John Wiley & Sons, Inc., 1994).
# 2. Assay for measurement of the adhesion of U937 cells to hVCAM-1(1-3)-IgG
# 2.1 96-well microtiter test plates (Nunc Maxisorb) were incubated at room temperature for 1 hour with 100 μl/well of a goat-anti-human IgG antibody solution (10 μg/ml in 50 mM Tris, pH 9.5). After removing the antibody solution, washing was carried out once with PBS.
# 2.2 150 μl/well of a blocking buffer (1% BSA in PBS) was incubated on the plates at room temperature for 0.5 hours. After removing the blocking buffer, washing was carried out once with PBS.
# 2.3 100 μl per well of a cell culture supernatant of transfected COS cells were incubated on the plates at room temperature for 1.5 hours. The COS cells were transfected with a plasmid which codes for the three N-terminal immunoglobulin-like domains of VCAM-1, coupled to the Fc part of human IgG1 (hVCAM-1(1-3)-IgG). The content of hVCAM-1(1-3)-IgG was about 0.5-1 μg/ml. After removing the culture supernatant, washing was carried out once with PBS.
# 2.4 The plates were incubated at room temperature for 20 minutes with 100 μl/well of Fc receptor blocking buffer (1 mg/ml of γ-globulin, 100 mM NaCl, 100 μM MgCl2, 100 μM MnCl2, 100 μM CaCl2, 1 mg/ml BSA in 50 mM HEPES, pH 7.5). After removing the Fc receptor blocking buffer, washing was carried out once with PBS.
# 2.5 20 μl of binding buffer (100 μM NaCl, 100 μM MgCl2, 100 μM MnCl2, 100 μM CaCl2, 1 mg/ml BSA in 50 mM HEPES, pH 7.5), were initially introduced, the substances to be tested were added in 10 μl of binding buffer and the mixture was incubated for 20 minutes. As controls, antibodies against VCAM-1 (BBT, No. BBA6) and against VLA-4 (Immunotech, No. 0764) were used.
# 2.6 U937 cells were incubated in Fc receptor blocking buffer for 20 minutes and then pipetted in at a concentration of 1×10^6/ml and in an amount of 100 μl per well ([…]).
# 2.7 The plates were slowly immersed at an angle of 45° in stop buffer (100 mM NaCl, 100 μM MgCl2, 100 μM MnCl2, 100 μM CaCl2 in 25 mM Tris, pH 7.5) and shaken off. The process was repeated.
# 2.8 50 μl/well of a dye solution (16.7 μg/ml of Hoechst dye 33258, 4% formaldehyde, 0.5% Triton X-100 in PBS) were then incubated on the plates for 15 minutes.
# 2.9 The plates were shaken off and slowly immersed at an angle of 45° in stop buffer (100 mM NaCl, 100 μM MgCl2, 100 μM MnCl2, 100 μM CaCl2 in 25 mM tris, pH 7.5). The process was repeated. […]
# T1 sequence (P13612 34-1032): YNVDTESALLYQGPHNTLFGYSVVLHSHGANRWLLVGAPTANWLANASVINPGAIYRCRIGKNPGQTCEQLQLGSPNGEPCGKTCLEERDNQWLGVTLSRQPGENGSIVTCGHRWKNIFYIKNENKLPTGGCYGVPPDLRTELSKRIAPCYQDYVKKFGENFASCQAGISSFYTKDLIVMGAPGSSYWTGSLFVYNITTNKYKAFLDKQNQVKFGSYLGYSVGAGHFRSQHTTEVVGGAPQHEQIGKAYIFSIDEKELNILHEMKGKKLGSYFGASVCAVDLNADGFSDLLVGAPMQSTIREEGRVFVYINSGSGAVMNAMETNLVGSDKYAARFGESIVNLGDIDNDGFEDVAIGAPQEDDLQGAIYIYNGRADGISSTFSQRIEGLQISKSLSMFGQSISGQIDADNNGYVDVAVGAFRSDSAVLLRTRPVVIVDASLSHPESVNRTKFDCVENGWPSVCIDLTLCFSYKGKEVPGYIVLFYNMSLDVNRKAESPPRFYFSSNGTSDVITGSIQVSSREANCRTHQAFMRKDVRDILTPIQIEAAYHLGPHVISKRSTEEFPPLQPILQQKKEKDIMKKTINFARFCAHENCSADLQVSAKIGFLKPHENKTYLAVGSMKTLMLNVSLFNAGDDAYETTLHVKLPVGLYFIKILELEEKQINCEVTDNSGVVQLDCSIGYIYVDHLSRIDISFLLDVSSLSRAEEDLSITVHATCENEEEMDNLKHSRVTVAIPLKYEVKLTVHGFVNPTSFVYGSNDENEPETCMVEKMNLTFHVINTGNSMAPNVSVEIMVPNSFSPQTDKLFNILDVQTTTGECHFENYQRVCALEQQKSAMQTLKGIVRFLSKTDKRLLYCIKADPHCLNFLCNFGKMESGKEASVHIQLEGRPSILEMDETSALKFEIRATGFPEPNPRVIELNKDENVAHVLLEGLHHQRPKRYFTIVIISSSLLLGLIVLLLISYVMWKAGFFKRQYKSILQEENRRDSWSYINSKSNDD
# T1 sequence (P05556 21-798): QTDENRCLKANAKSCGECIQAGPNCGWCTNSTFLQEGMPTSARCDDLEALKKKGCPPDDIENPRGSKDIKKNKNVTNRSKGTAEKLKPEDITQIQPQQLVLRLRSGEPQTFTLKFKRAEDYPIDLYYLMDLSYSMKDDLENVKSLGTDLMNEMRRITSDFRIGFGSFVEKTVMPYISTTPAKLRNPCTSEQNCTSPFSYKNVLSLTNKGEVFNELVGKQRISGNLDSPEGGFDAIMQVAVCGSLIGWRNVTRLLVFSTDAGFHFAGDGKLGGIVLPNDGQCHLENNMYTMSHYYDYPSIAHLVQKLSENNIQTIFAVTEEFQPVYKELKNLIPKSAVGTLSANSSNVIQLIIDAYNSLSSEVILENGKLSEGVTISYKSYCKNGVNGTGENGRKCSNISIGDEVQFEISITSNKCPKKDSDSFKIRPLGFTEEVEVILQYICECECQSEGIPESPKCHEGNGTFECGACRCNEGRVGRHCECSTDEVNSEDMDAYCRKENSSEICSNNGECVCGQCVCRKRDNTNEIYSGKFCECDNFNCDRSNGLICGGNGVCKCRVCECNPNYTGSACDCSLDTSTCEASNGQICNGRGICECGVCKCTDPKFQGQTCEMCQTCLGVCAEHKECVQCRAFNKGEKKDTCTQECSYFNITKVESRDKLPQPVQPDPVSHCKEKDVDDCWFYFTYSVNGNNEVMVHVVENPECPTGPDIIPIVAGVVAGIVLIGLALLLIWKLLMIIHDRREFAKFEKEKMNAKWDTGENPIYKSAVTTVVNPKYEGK
row,IC50 [µM],SMILES
1,2.8,"Cc1ccccc1NC(=O)Nc1ccc(C2(C)C(=O)N(CC(=O)N[C@@H](CC(=O)O)C(=O)N[C@H](C(=O)O)c3ccccc3)C(=O)N2Cc2ccccc2)cc1 (stereo partly drawn) [Example 3, ((R,S)-3-Benzyl-4-methyl-4-(4-(3-(2-methylphenyl)ureido)phenyl)-2,5-dioxoimidazolidin-1-yl)acetyl-L-aspartyl-L-phenylglycine]"
2,20,"CC1(c2ccc(CNC(=O)NCCc3ccccc3)cc2)C(=O)N(CC(=O)N[C@@H](CC(=O)O)C(=O)N[C@H](C(=O)O)c2ccccc2)C(=O)N1Cc1ccccc1 (stereo partly drawn) [Example 7, ((R,S)-3-Benzyl-4-methyl-4-(4-(3-(2-phenylethyl)ureidomethyl)phenyl)-2,5-dioxoimidazolidin-1-yl)acetyl-L-aspartyl-L-phenylglycine]"
3,6.5,"Cc1ccccc1NC(=O)NCc1ccc(C2(C)C(=O)N(CC(=O)N[C@@H](CC(=O)O)C(=O)N[C@H](C(=O)O)c3ccccc3)C(=O)N2Cc2ccccc2)cc1 (stereo partly drawn) [Example 6, ((R,S)-3 -Benzyl-4-methyl-4-(4-(3-(2-methylphenyl)ureidomethyl)phenyl)-2,5-dioxoimidazolidin-1-yl)acetyl-L-aspartyl-L-phenylglycine]"
4,9,"CC1(c2ccc(CNC(=O)Nc3ccccc3)cc2)C(=O)N(CC(=O)N[C@@H](CC(=O)O)C(=O)N[C@H](C(=O)O)c2ccccc2)C(=O)N1Cc1ccccc1 (mixture of isomers) [Example 5, ((RS)-3-Benzyl-4-methyl-4-(4-(3-phenylureidomethyl)phenyl)-2,5-dioxoimidazolidin-1-yl)acetyl-L-aspartyl-L-phenylglycine]"
5,30,CC1(c2ccc(C#N)cc2)C(=O)N(CC(=O)N[C@@H](CC(=O)O)C(=O)N[C@H](C(=O)O)c2ccccc2)C(=O)N1Cc1ccc2ccccc2c1 (stereo partly shown) [Example 1]
6,27.7,"CC1(c2ccc([N+](=O)[O-])cc2)C(=O)N(CC(=O)N[C@@H](CC(=O)O)C(=O)N[C@H](C(=O)O)c2ccccc2)C(=O)N1Cc1ccccc1 (stereo partly drawn) [Example 2, ((R,S)-3 -Benzyl-4-methyl-4-(4-nitrophenyl)-2,5-dioxoimidazolidin-1-yl)acetyl-L-aspartyl-L-phenylglycine]"
7,14,"CC1(c2ccc(CNC(=O)NCc3ccccc3)cc2)C(=O)N(CC(=O)N[C@@H](CC(=O)O)C(=O)N[C@H](C(=O)O)c2ccccc2)C(=O)N1Cc1ccccc1 (stereo partly drawn) [Example 4, ((R,S)-3-Benzyl-4-(4-(3-benzylureidomethyl)phenyl)-4-methyl-2,5-dioxoimidazolidin-1-yl)acetyl-L-aspartyl-L-phenylglycine]"
